Source: patent US20240101531A1, “PYRIDINAMINE DERIVATIVES AND THEIR USE AS POTASSIUM CHANNEL MODULATORS” (Xenon Pharmaceuticals Inc., priority 2022, published 2024)
Counter-ions that a name gives are not always drawn.

Target: human KV7.2/KV7.3 (Homo sapiens (Human), UniProt O43525+O43526)
Experiment: Potassium flux assay (IPG-2 AM dye)
Type: cell-based
Conditions: TREX HEK 293 or HEK 293 cells expressing human KV7.2/KV7.3; arithmetic mean values
Procedure, shortened: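 HEK 293 or TREX HEK 293 cells stably expressing human KV7.2/KV7.3 (tetracycline-induced where needed), loaded with IPG-2 AM, then compound for 20 min at room temperature. Flux triggered by K challenge buffer (10 mM KCl, pH 7.4), read at 530/558 nm; EC50 from 16-point 2-fold series from 30 μM, normalised to DMSO and reference modulator.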

Row | Compound | EC50
1 | Clc1ccc(Nc2nccc3cc(NCC4CC4)ccc23)cn1 [Example 230, N^1-(6-chloropyridin-3-yl)-N^6-(cyclopropylmethyl)isoquinoline-1,6-diamine formate] | 10 to 30 µM
2 | C[C@@H](Oc1ccc2c(Nc3ccc(Cl)nc3)nccc2c1)c1cnn(C)c1 [Example 171, (R)—N-(6-chloropyridin-3-yl)-6-(1-(1-methyl-1H-pyrazol-4-yl)ethoxy)isoquinolin-1-amine] | < 1 µM
3 | COc1cc(Nc2nccc3cc(OCc4cnn(C)c4)ccc23)cnc1C [Example 55, N-(5-methoxy-6-methylpyridin-3-yl)-6-((1-methyl-1H-pyrazol-4-yl)methoxy)isoquinolin-1-amine formate] | < 1 µM
4 | FC1(F)COCC1Oc1ccc2c(Nc3ccc(Cl)nc3)nccc2c1 (centres unmarked) [Example 86, N-(6-chloropyridin-3-yl)-6-((4,4-difluorotetrahydrofuran-3-yl)oxy)isoquinolin-1-amine 2,2,2-trifluoroacetate] | 1 to 10 µM
5 | Clc1ncc(Nc2nccc3cc(OCCCc4cn[nH]c4)ccc23)cn1 [Example 389, 6-(3-(1H-pyrazol-4-yl)propoxy)-N-(2-chloropyrimidin-5-yl)isoquinolin-1-amine] | < 1 µM
6 | C[C@H](Oc1ccc2c(Nc3ccc(Cl)nc3)nccc2c1)c1ccncc1 [Example 237, (S)—N-(6-chloropyridin-3-yl)-6-(1-(pyridin-4-yl)ethoxy)isoquinolin-1-amine] | < 1 µM
7 | COc1cc(Nc2nccc3cc(OCC4(C)COC4)ccc23)cnc1Cl [Example 36, N-(6-chloro-5-methoxypyridin-3-yl)-6-((3-methyloxetan-3-yl)methoxy)isoquinolin-1-amine] | < 1 µM
8 | FC(F)c1ccc(Nc2nccc3cc(OCC4(F)CC4)ccc23)cn1 [Example 43, N-(6-(difluoromethyl)pyridin-3-yl)-6-((1-fluorocyclopropyl)methoxy)isoquinolin-1-amine] | ≥ 30 µM
9 | OCC1(COc2ccc3c(Nc4ccc(Cl)nc4)nccc3c2)CC1 [Example 238, (1-(((1-((6-chloropyridin-3-yl)amino)isoquinolin-6-yl)oxy)methyl)cyclopropyl)methanol] | < 1 µM
10 | CS(=O)(=O)N1CCC(Oc2ccc3c(Nc4ccc(Cl)nc4)nccc3c2)CC1 [Example 118, N-(6-chloropyridin-3-yl)-6-((1-(methylsulfonyl)piperidin-4-yl)oxy)isoquinolin-1-amine] | 1 to 10 µM
11 | COCCNC(=O)c1ccc2c(Nc3ccc(Cl)nc3)nccc2c1 [Example 418] | 10 to 30 µM

Further lines, results first:

Row | EC50 | Compound
12 | 1 to 10 µM | Cc1ncc(Nc2nccc3cc(OCC4(C#N)COC4)ccc23)cn1 [Example 228, 3-(((1-((2-methylpyrimidin-5-yl)amino)isoquinolin-6-yl)oxy)methyl)oxetane-3-carbonitrile]
13 | 1 to 10 µM | Cc1ncc(Nc2nccc3cc(OCC4(C#N)CC4)ccc23)cn1 [Example 88, 1-(((1-((2-methylpyrimidin-5-yl)amino)isoquinolin-6-yl)oxy)methyl)cyclopropane-1-carbonitrile]
14 | < 1 µM | Clc1ncc(Nc2nccc3cc(OCC4COC4)ccc23)cn1 [Example 213, N-(2-chloropyrimidin-5-yl)-6-(oxetan-3-ylmethoxy)isoquinolin-1-amine]
15 | < 1 µM | Cc1ncc(Nc2nccc3cc(OCC4(C)COC4)ccc23)cn1 [Example 218, 6-((3-methyloxetan-3-yl)methoxy)-N-(2-methylpyrimidin-5-yl)isoquinolin-1-amine]
16 | < 1 µM | COc1ncc(Nc2nccc3cc(OCC4(C#N)CC4)ccc23)cn1 [Example 373, 1-(((1-((2-methoxypyrimidin-5-yl)amino)isoquinolin-6-yl)oxy)methyl)cyclopropane-1-carbonitrile]
17 | < 1 µM | CC(F)(F)C1(COc2ccc3c(Nc4cnc(Cl)nc4)nccc3c2)COC1 [Example 355, N-(2-chloropyrimidin-5-yl)-6-((3-(1,1-difluoroethyl)oxetan-3-yl)methoxy)isoquinolin-1-amine]
